In patent publication US20230147257A1 (DONG-A ST CO., LTD., priority 2020, published 2023):
Counter-ions that a name gives are not always drawn. Like-named read-outs stand apart in the source and are kept apart here.

What was measured:
AhR [1] = target: T1, AhR (Homo sapiens, UniProt P35869); test: In vitro assay 3: XRE-luciferase reporter assay, agonism in human cell line (HepG2); format: cell-based; settings: HepG2 XRE-Luc, tryptophan free medium, test compound alone, 6 hours
T1 construct: host or cells: HepG2
T1 sequence (P35869 11-848): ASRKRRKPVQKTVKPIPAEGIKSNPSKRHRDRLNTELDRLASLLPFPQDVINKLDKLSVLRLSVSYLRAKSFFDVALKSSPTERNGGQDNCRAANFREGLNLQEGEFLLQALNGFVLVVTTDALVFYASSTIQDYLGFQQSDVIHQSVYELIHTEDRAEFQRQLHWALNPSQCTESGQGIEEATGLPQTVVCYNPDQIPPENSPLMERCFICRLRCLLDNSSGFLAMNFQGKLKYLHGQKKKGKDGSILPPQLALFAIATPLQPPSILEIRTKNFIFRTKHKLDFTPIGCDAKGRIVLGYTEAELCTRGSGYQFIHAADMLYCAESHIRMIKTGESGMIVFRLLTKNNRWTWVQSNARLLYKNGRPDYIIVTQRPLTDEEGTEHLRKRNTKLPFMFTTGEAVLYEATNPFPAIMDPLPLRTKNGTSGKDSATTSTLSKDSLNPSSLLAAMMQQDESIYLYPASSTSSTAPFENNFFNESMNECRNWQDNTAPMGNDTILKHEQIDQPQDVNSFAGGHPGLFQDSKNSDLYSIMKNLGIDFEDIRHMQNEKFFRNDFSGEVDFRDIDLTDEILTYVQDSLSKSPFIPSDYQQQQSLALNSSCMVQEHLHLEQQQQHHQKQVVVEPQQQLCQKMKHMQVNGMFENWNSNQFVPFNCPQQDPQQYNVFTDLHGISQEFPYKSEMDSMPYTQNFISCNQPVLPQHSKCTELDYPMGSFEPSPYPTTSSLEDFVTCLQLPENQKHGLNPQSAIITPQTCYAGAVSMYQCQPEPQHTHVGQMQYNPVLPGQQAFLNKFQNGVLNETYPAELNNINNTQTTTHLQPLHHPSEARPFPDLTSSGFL
Description: (§1) In Vitro XRE-Luciferase Reporter Assay (In Vitro Assay 1, 2, 3)
(§2) AhR activation leads the induction of target gene expression such as CYP1A1 and CYP1B1 by AhR binding to AhR-responsive DNA elements also known as xenobiotics responsive elements (XRE). The assay for measuring AhR activity herein is the luciferase assay using cell lines transfected with luciferase reporter plasmid containing XREs at the upstream of the reporter gene. Cells transfected with XRE-luciferase reporter (XRE-Luc) plasmid drive luciferase activity reflecting activation and inhibition of AhR in the cells. In addition to transfection with XRE-reporter vector, cells were co-transfected with Nano-luciferase reporter gene construct (Nano-Luc) containing constitutively active promoter as internal control. Kynurenine (an endogenous AhR agonist) was used to stimulate cells to test antagonistic properties of the compounds. The half-maximal inhibitory concentration (IC50) or half-maximal effective concentration (EC50) value was calculated using nonlinear regression (four parameters) with Prism8.0 software (GraphPad).
In Vitro Assay 3: Agonism in Human Cell Line
HepG2 (human hepatoma cell line) cells co-transfected with XRE-Luc and Nano-Luc plasmids were plated in tryptophan free medium containing 1% of dialyzed fetal bovine serum and incubated overnight at 37° C. in a CO2 incubator. After 24 hours, cells were treated for 6 hours with test compounds or not. Firefly luciferase and Nano-luciferase activity was measured using Nano-glo Luciferase kit (Promega) and relative luciferase activity (Firefly/Nano-Luc) was used to calculate EC50 values. As a positive control, cells were incubated with TCDD. (EC50 Values are grouped as A, B, C and D, whereby A: EC50<0.1 μM; B: 0.1<EC50<1.0 μM; C: 1.0<EC50<10 μM; D: EC50>10 μM)

AhR [2] = target: T1, AhR; test: In vitro assay 1: XRE-luciferase reporter assay, antagonism in human cell line (HepG2); format: cell-based; settings: HepG2 XRE-luciferase, 6 hours, read-out: Assay 1: AhR-Luc Human Antagonism (IC50)
Description: as §1, §2
In Vitro Assay 1: Antagonism in Human Cell Line
HepG2 (human hepatoma cell line) cell line with a XRE-luciferase reporter either transiently or stably (Invivogen) were plated in complete medium and incubated at 37° C. in a CO2 incubator. After 24 hours, cells were treated with kynurenine (50* or 200 μM) alone (negative control) or with test compounds for 6 hours. Luciferase activity was measured with a commercial kit such as the Promega Luciferase kit or other reagents for measuring luciferase activity. Relative luciferase activity (Firefly/Nano-Luc) was used to calculate IC50 values. The relative luciferase activity was further normalized with kynurenine alone group as the maximum control and the vehicle group as the minimum control. (IC50 values are grouped as A, B, C and D, whereby A: IC50<0.01 μM; B: 0.01<IC50<0.1 μM; C: 0.1<IC50<1.0 μM; D: IC50>1.0 μM)

[3] = read-out: Assay 3: AhR-Luc Human Agonism (EC50)
[4] = read-out: Assay 3: AhR-Luc Human Agonism (EC50, nM), class in brackets
[5] = cells treated with kynurenine 200 μM (no *)
[6] = cells treated with kynurenine 50 μM (*)

Structure (SMILES)	EC50 (AhR [1]; [3])	EC50 (AhR [1]; [4])	IC50 (AhR [2]; [5])	IC50 (AhR [2]; [6])
CS(=O)(=O)CCn1cnc2c(-c3cccnc3)nc(-c3ccc(C(F)(F)F)cc3)cc2c1=O [Example 76, 3-(2-(methylsulfonyl)ethyl)-8-(pyridin-3-yl)-6-(4-(trifluoromethyl)phenyl)pyrido[3,4-d]pyrimidin-4(3H)-one]	> 30000 nM	> 10000 nM	< 10 nM	–
Cn1cc(-c2nc(-c3ccc(C(F)(F)F)cc3)cc3c(=O)n(C4CCCC(O)C4)cnc23)cn1 (stereo not drawn) [Example 1, 3-(3-hydroxycyclohexyl)-8-(1-methyl-1H-pyrazol-4-yl)-6-(4-(trifluoromethyl)phenyl)pyrido[3,4-d]pyrimidin-4(3H)-one]	> 30000 nM	> 10000 nM	–	< 10 nM
CC(CO)n1cnc2c(-c3cccnc3)nc(-c3ccc(OC(F)(F)F)cc3)cc2c1=O (stereo not drawn) [Example 49, 3-(1-hydroxypropan-2-yl)-8-(pyridin-3-yl)-6-(4-(trifluoromethoxy)phenyl)pyrido[3,4-d]pyrimidin-4(3H)-one]	9660 nM	–	–	< 10 nM
CC(CO)n1cnc2c(-c3cccnc3)nc(-c3ccc(C(F)(F)F)nc3)cc2c1=O (stereo not drawn) [Example 50, 3-(1-hydroxypropan-2-yl)-8-(pyridin-3-yl)-6-(6-(trifluoromethyl)pyridin-3-yl)pyrido[3,4-d]pyrimidin-4(3H)-one]	2050 nM	–	–	< 10 nM
CCC(CO)n1cnc2c(-c3cnn(C)c3)nc(-c3ccc(Cl)cc3)cc2c1=O (stereo not drawn) [Example 52, 6-(4-chlorophenyl)-3-(1-hydroxybutan-2-yl)-8-(1-methyl-1H-pyrazol-4-yl)pyrido[3,4-d]pyrimidin-4(3H)-one]	290 nM	–	–	< 10 nM
CC(CO)n1cnc2c(-c3cnn(C)c3)nc(-c3cnn(C)c3)cc2c1=O (stereo not drawn) [Example 3, 3-(1-hydroxypropan-2-yl)-6,8-bis(1-methyl-1H-pyrazol-4-yl)pyrido[3,4-d]pyrimidin-4(3H)-one]	> 30000 nM	> 10000 nM	–	> 1000 nM
CC(CO)n1cnc2c(-c3cccnc3)nc(-c3ccc(C(F)(F)F)cc3)cc2c1=O (stereo not drawn) [Example 44, 3-(1-hydroxypropan-2-yl)-8-(pyridin-3-yl)-6-(4-(trifluoromethyl)phenyl)pyrido[3,4-d]pyrimidin-4(3H)-one]	> 30000 nM	> 10000 nM	–	< 10 nM
CC(O)Cn1cnc2c(-c3cnn(C)c3)nc(-c3ccc(C(F)(F)F)nc3)cc2c1=O (stereo not drawn) [Example 14, 3-(2-hydroxypropyl)-8-(1-methyl-1H-pyrazol-4-yl)-6-(6-(trifluoromethyl)pyridin-3-yl)pyrido[3,4-d]pyrimidin-4(3H)-one]	> 30000 nM	> 10000 nM	–	< 10 nM
O=c1c2cc(-c3ccc(N4CCOCC4)cc3)nc(-c3cccnc3)c2ncn1CC(O)CO (stereo not drawn) [Example 82, 3-(2,3-dihydroxypropyl)-6-(4-morpholinophenyl)-8-(pyridin-3-yl)pyrido[3,4-d]pyrimidin-4(3H)-one]	> 30000 nM	> 10000 nM	< 10 nM	–
Cn1cc(-c2nc(-c3ccc(Cl)cc3)cc3c(=O)n([C@H]4CC[C@H](O)CC4)cnc23)cn1 [Example 10, 6-(4-chlorophenyl)-3-((1r,4r)-4-hydroxycyclohexyl)-8-(1-methyl-1H-pyrazol-4-yl)pyrido[3,4-d]pyrimidin-4(3H)-one]	> 30000 nM	> 10000 nM	–	< 10 nM
CC(C(=O)O)n1cnc2c(-c3cccnc3)nc(-c3ccc(C(F)(F)F)cc3)cc2c1=O (stereo not drawn) [Example 84, 2-(4-oxo-8-(pyridin-3-yl)-6-(4-(trifluoromethyl)phenyl)pyrido[3,4-d]pyrimidin-3(4H)-yl)propanoic acid, 2,2,2-trifluoroacetic acid salt]	–	–	100 to 1000 nM	–
CC(CN)n1cnc2c(-c3cccnc3)nc(-c3ccc(N4CCOCC4)cc3)cc2c1=O (stereo not drawn) [Example 90, 3-(1-aminopropan-2-yl)-6-(4-morpholinophenyl)-8-(pyridin-3-yl)pyrido[3,4-d]pyrimidin-4(3H)-one]	–	–	100 to 1000 nM	–
CC(=O)OC(C)(C)Cn1cnc2c(-c3cccnc3)nc(-c3ccc(Cl)cc3)cc2c1=O [Example 36, 1-(6-(4-chlorophenyl)-4-oxo-8-(pyridin-3-yl)pyrido[3,4-d]pyrimidin-3(4H)-yl)-2-methylpropan-2-yl acetate]	–	–	10 to 100 nM	–
Cn1cc(-c2nc(-c3ccc(C(F)(F)F)cc3)cc3c(=O)n(CC(O)C(F)(F)F)cnc23)cn1 (stereo not drawn) [Example 22, 8-(1-methyl-1H-pyrazol-4-yl)-3-(3,3,3-trifluoro-2-hydroxypropyl)-6-(4-(trifluoromethyl)phenyl)pyrido[3,4-d]pyrimidin-4(3H)-one]	–	–	< 10 nM	–
CC(C)C(CO)n1cnc2c(-c3cccnc3)nc(-c3ccc(C(F)(F)F)nc3)cc2c1=O (stereo not drawn) [Example 43, 3-(1-hydroxy-3-methylbutan-2-yl)-8-(pyridin-3-yl)-6-(6-(trifluoromethyl)pyridin-3-yl)pyrido[3,4-d]pyrimidin-4(3H)-one]	–	–	> 1000 nM	–
O=c1c2cc(-c3ccc(N4CCOCC4)cc3)nc(-c3cccnc3)c2ncn1C(CO)CO [Example 80, 3-(1,3-dihydroxypropan-2-yl)-6-(4-morpholinophenyl)-8-(pyridin-3-yl)pyrido[3,4-d]pyrimidin-4(3H)-one]	–	–	< 10 nM	–
O=c1c2cc(-c3ccc(C(F)(F)F)cc3)nc(-c3cccnc3)c2ncn1[C@H]1CCCC[C@H]1O [Example 15, 3-((1S,2R)-2-hydroxycyclohexyl)-8-(pyridin-3-yl)-6-(4-(trifluoromethyl)phenyl)pyrido[3,4-d]pyrimidin-4(3H)-one]	–	–	> 1000 nM	–
CC(C)(O)Cn1cnc2c(-c3cccnc3)nc(-c3ccc(C(F)(F)F)cc3)cc2c1=O [Example 39, 3-(2-hydroxy-2-methylpropyl)-8-(pyridin-3-yl)-6-(4-(trifluoromethyl)phenyl)pyrido[3,4-d]pyrimidin-4(3H)-one]	–	–	> 1000 nM	–
CC(CO)n1cnc2c(-c3ccc(C(F)(F)F)cc3)nc(-c3cnn(C)c3)cc2c1=O (stereo not drawn) [Example 4, 3-(1-hydroxypropan-2-yl)-6-(1-methyl-1H-pyrazol-4-yl)-8-(4-(trifluoromethyl)phenyl)pyrido[3,4-d]pyrimidin-4(3H)-one]	–	–	–	> 1000 nM
CC(CO)N1CNc2c(cc(-c3ccc(Cl)cc3)nc2-c2cccnc2)C1=O (stereo not drawn) [Example 60]	–	–	10 to 100 nM	–
CC(C(=O)O)n1cnc2c(-c3cccnc3)nc(-c3ccc(Cl)cc3)cc2c1=O (stereo not drawn) [Example 83, 2-(6-(4-chlorophenyl)-4-oxo-8-(pyridin-3-yl)pyrido[3,4-d]pyrimidin-3(4H)-yl)propanoic acid, 2,2,2-trifluoroacetic acid salt]	–	–	100 to 1000 nM	–
Cn1cc(-c2nc(-c3ccc(Cl)cc3)cc3c(=O)n([C@H]4CC[C@@H](O)C4)cnc23)cn1 [Example 34, 6-(4-chlorophenyl)-3-((1S,3R)-3-hydroxycyclopentyl)-8-(1-methyl-1H-pyrazol-4-yl)pyrido[3,4-d]pyrimidin-4(3H)-one]	–	–	< 10 nM	–
